According to patent publication US20240199587A1, “HETEROCYCLIC COMPOUNDS” (Hoffmann-La Roche Inc., priority 2021, published 2024):

What follows are compounds tested against T1, MAGL (Homo sapiens, UniProt Q99685) (assay: 2-AG assay (MAGL inhibitory activity, hydrolysis of 2-arachidonoylglycerol to arachidonic acid followed by mass spectrometry)). Details: 8 μM 2-arachidonoylglycerol, 15 min pre-incubation, 30 min incubation at RT, RapidFire MS readout.
T1 sequence (Q99685 1-303): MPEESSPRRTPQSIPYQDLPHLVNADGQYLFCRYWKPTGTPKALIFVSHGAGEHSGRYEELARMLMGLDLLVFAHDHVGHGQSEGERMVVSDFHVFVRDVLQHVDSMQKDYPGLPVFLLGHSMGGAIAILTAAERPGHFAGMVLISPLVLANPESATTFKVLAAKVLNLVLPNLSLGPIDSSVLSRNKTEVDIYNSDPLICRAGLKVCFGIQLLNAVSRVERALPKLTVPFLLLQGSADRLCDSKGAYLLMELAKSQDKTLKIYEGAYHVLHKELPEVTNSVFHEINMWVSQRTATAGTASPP
Type: biochemical
Procedure, shortened: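 Human MAGL ([…] final) pre-incubated 15 min at RT with compound in 50 mM TRIS, 1 mM EDTA, 0.01% Tween-20, 2.5% DMSO; 8 μM 2-AG then added for 30 min at RT. Acetonitrile quench with d8-arachidonic acid; arachidonic acid measured by RapidFire SPE–MS/MS, activity from arachidonic acid/d8 ratio.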

IC50	SMILES
0.2 nM	O=C(N1CC2(CC(Oc3cc(F)cc(C(F)(F)F)c3)C2)C1)N1CC2(CC(n3cnc(C4CC4)n3)C2)C1 [Example 46, (6-(3-cyclopropyl-1H-1,2,4-triazol-1-yl)-2-azaspiro[3.3]heptan-2-yl)(6-(3-fluoro-5-(trifluoromethyl)phenoxy)-2-azaspiro[3.3]heptan-2-yl)methanone]
0.2 nM	N#Cc1cc(OC(F)(F)F)ccc1OC1CC2(C1)CN(C(=O)N1CC3(CC(n4cnc(C5CC5)n4)C3)C1)C2 [Example 47]
0.2 nM	O=C(N1CC(c2ccc(C3(C(F)(F)F)CC3)cc2)C1)N1CC2(CC(n3cnc(C4CC4)c3)C2)C1 [Example 48, [6-(4-cyclopropylimidazol-1-yl)-2-azaspiro[3.3]heptan-2-yl]-[3-[4-[1-(trifluoromethyl)cyclo-propyl]phenyl]azetidin-1-yl]methanone]
0.3 nM	O=C(N1CC(OCc2ccc(S(F)(F)(F)(F)F)cc2F)C1)N1CC2(CC(n3cnc(C4CC4)n3)C2)C1 [Example 49]
0.3 nM	O=C(N1CC2(CC(Cc3ccc(F)c(F)c3)C2)C1)N1CC2(CC(n3cnc(C4CC4)n3)C2)C1 [Example 50, (6-(3-cyclopropyl-1H-1,2,4-triazol-1-yl)-2-azaspiro[3.3]heptan-2-yl)(6-(3,4-difluorobenzyl)-2-azaspiro[3.3]heptan-2-yl)methanone]
0.3 nM	O=C(N1CC2(CC(Oc3cncc(C(F)(F)F)n3)C2)C1)N1CC2(CC(n3cnc(C4CC4)n3)C2)C1 [Example 51, (6-(3-cyclopropyl-1H-1,2,4-triazol-1-yl)-2-azaspiro[3.3]heptan-2-yl)(6-((6-(trifluoromethyl)pyrazin-2-yl)oxy)-2-azaspiro[3.3]heptan-2-yl)methanone]
0.4 nM	O=C(N1CC2(CC(Oc3ccc(C(F)(F)F)cn3)C2)C1)N1CC2(CC(n3cnc(C4CC4)n3)C2)C1 [Example 52, [6-(3-cyclopropyl-1,2,4-triazol-1-yl)-2-azaspiro[3.3]heptan-2-yl]-[6-[[5-(trifluoromethyl)-2-pyridyl]oxy]-2-azaspiro[3.3]heptan-2-yl]methanone]
0.7 nM	O=C(N1CC(c2ccc(OC(F)(F)F)c(Cl)c2)C1)N1CC2(CC(n3cnc(C4CC4)n3)C2)C1 [Example 53, [3-[3-chloro-4-(trifluoromethoxy)phe-nyl]azetidin-1-yl]-[6-(3-cyclopropyl-1,2,4-triazol-1-yl)-2-azaspiro[3.3]heptan-2-yl]methanone]
1.2 nM	O=C(N1CC2(CC(Oc3ccc(OC(F)(F)F)cc3)C2)C1)N1CC2(CC(n3cnc(C4CC4)n3)C2)C1 [Example 54, [6-(3-cyclopropyl-1,2,4-triazol-1-yl)-2-azaspiro[3.3]heptan-2-yl]-[6-[4-(trifluoromethoxy)phe-noxy]-2-azaspiro[3.3]heptan-2-yl]methanone]
1.8 nM	O=C(N1CC2(CC(Oc3ccnc(C(F)(F)F)n3)C2)C1)N1CC2(CC(n3cnc(C4CC4)n3)C2)C1 [Example 55, [6-(3-cyclopropyl-1,2,4-triazol-1-yl)-2-azaspiro[3.3]heptan-2-yl]−[6-[2-(trifluoromethyl)pyrimidin-4-yl]oxy-2-azaspiro[3.3]heptan-2-yl]methanone]
2.5 nM	O=C(N1CC2(CC(Oc3ccc(OC(F)F)nc3)C2)C1)N1CC2(CC(n3cnc(C4CC4)n3)C2)C1 [Example 56, (6-(3-cyclopropyl-1H-1,2,4-triazol-1-yl)-2-azaspiro[3.3]heptan-2-yl)(6-((6-(difluoromethoxy)pyridin-3-yl)oxy)-2-azaspiro[3.3]heptan-2-yl)methanone]
2.5 nM	O=C(N1CC2(CC(Oc3cc(C(F)(F)F)ncn3)C2)C1)N1CC2(CC(n3cnc(C4CC4)n3)C2)C1 [Example 57, [6-(3-cyclopropyl-1,2,4-triazol-1-yl)-2-azaspiro[3.3]heptan-2-yl]-[6-[6-(trifluoromethyl)pyrimidin-4-yl]oxy-2-azaspiro[3.3]heptan-2-yl]methanone]
2.6 nM	O=C(N1CC2(CC(Oc3nccc(C(F)(F)F)n3)C2)C1)N1CC2(CC(n3cnc(C4CC4)n3)C2)C1 [Example 58, [6-(3-cyclopropyl-1,2,4-triazol-1-yl)-2-azaspiro[3.3]heptan-2-yl]-[6-[4-(trifluoromethyl)pyrimidin-2-yl]oxy-2-azaspiro[3.3]heptan-2-yl]methanone]
2.6 nM	O=C(N1CC2(CC(Oc3ccc(F)cc3F)C2)C1)N1CC2(CC(n3cnc(C4CC4)n3)C2)C1 [Example 59, (6-(3-cyclopropyl-1H-1,2,4-triazol-1-yl)-2-azaspiro[3.3]heptan-2-yl)(6-(2,4-difluorophenoxy)-2-azaspiro[3.3]heptan-2-yl)methanone]
5.3 nM	COc1ccc(OC2CC3(C2)CN(C(=O)N2CC4(CC(n5cnc(C6CC6)n5)C4)C2)C3)cn1 [Example 60, (6-(3-cyclopropyl-1H-1,2,4-triazol-1-yl)-2-azaspiro[3.3]heptan-2-yl)(6-((6-methoxypyridin-3-yl)oxy)-2-azaspiro[3.3]heptan-2-yl)methanone]
5.4 nM	O=C(N1CC2(CC(Oc3cnc(C(F)(F)F)nc3)C2)C1)N1CC2(CC(n3cnc(C4CC4)n3)C2)C1 [Example 61, (6-(3-cyclopropyl-1H-1,2,4-triazol-1-yl)-2-azaspiro[3.3]heptan-2-yl)(6-((2-(trifluoromethyl)pyrimidin-5-yl)oxy)-2-azaspiro[3.3]heptan-2-yl)methanone]
7.2 nM	O=C(N1CC2(CC(Oc3ccc(C(F)(F)F)nn3)C2)C1)N1CC2(CC(n3cnc(C4CC4)n3)C2)C1 [Example 62, [6-(3-cyclopropyl-1,2,4-triazol-1-yl)-2-azaspiro[3.3]heptan-2-yl]-[6-[6-(trifluoromethyl)pyridazin-3-yl]oxy-2-azaspiro[3.3]heptan-2-yl]methanone]
19.8 nM	O=C(N1CC2(CC(Oc3cncc(F)c3)C2)C1)N1CC2(CC(n3cnc(C4CC4)n3)C2)C1 [Example 63, (6-(3-cyclopropyl-1H-1,2,4-triazol-1-yl)-2-azaspiro[3.3]heptan-2-yl)(6-((5-fluoropyridin-3-yl)oxy)-2-azaspiro[3.3]heptan-2-yl)methanone]
21.7 nM	CC(C)(C)c1nc(-c2ccc(C(=O)N3CC4(CC(n5cnc(C6CC6)c5)C4)C3)cc2)no1 [Example 64, (4-(5-(tert-butyl)-1,2,4-oxadiazol-3-yl)phenyl)(6-(4-cyclopropyl-1H-imidazol-1-yl)-2-azaspiro[3.3]heptan-2-yl)methanone]
83.2 nM	O=C(N1CC2(CC(OCC(F)(F)F)C2)C1)N1CC2(CC(n3cnc(C4CC4)n3)C2)C1 [Example 65, [6-(3-cyclopropyl-1,2,4-triazol-1-yl)-2-azaspiro[3.3]heptan-2-yl]-[6-(2,2,2-trifluoroethoxy)-2-azaspiro[3.3]heptan-2-yl]methanone]
159 nM	Cn1ccc(OC2CC3(C2)CN(C(=O)N2CC4(CC(n5cnc(C6CC6)n5)C4)C2)C3)cc1=O [Example 66, 4-[[2-[6-(3-cyclopropyl-1,2,4-triazol-1-yl)-2-azaspiro[3.3]heptane-2-carbonyl]-2-azaspiro[3.3]heptan-6-yl]oxy]-1-methyl-pyridin-2-one]
3170 nM	O=C(N1CC(c2ccc(C3(C(F)(F)F)CC3)cc2)C1)N1CC2(CC(n3ncnc3C3CC3)C2)C1 [Example 67, [6-(5-cyclopropyl-1,2,4-triazol-1-yl)-2-azaspiro13.31heptan-2-yl]−[3-[4-[1-(trifluoromethyl)cyclopropyl]phenyl]azetidin-1-yl]1methanone]
0.9 nM	O=C(N1CC2(CC(Oc3ccc(F)c(F)c3)C2)C1)N1CC2(CC(n3cnc(C4CC4)n3)C2)C1 [Example 68, [6-(3-cyclopropyl-1,2,4-triazol-1-yl)-2-azaspiro[3.3]heptan-2-yl]-[6-(3,4-difluorophenoxy)-2-azaspiro[3.3]heptan-2-yl]methanone]
2 nM	O=C(N1CC(c2ccc(OC(F)(F)F)c(Cl)c2)C1)N1CC2(CC(n3cnc(C4CC4)c3)C2)C1 [Example 69]
2.1 nM	O=C(N1CC2(CC(Oc3cnc(C(F)(F)F)cn3)C2)C1)N1CC2(CC(n3cnc(C4CC4)n3)C2)C1 [Example 70, [6-(3-cyclopropyl-1,2,4-triazol-1-yl)-2-azaspiro[3.3]heptan-2-yl]-[6-[5-(trifluoromethyl)pyrazin-2-yl]oxy-2-azaspiro[3.3]heptan-2-yl]methanone]
7.1 nM	O=C(N1CC(OCc2ccc(OC(F)(F)F)cc2)C1)N1CC2(CC(n3cnc(C4CC4)n3)C2)C1 [Example 71, (6-(3-cyclopropyl-1H-1,2,4-triazol-1-yl)-2-azaspiro[3.3]heptan-2-yl)(3-((4-(trifluoromethoxy)ben-zyl)oxy)azetidin-1-yl)methanone]
3.9 nM	O=C(N1CC(OCc2ccc(C(F)(F)F)cc2)C1)N1CC2(CC(n3cnc(C4CC4)n3)C2)C1 [Example 72, (6-(3-cyclopropyl-1H-1,2,4-triazol-1-yl)-2-azaspiro[3.3]heptan-2-yl)(3-((4-(trifluoromethyl)benzyl)oxy)azetidin-1-yl)methanone]
8.2 nM	O=C(N1CC(OCc2cc(C(F)(F)F)ccc2F)C1)N1CC2(CC(n3cnc(C4CC4)n3)C2)C1 [Example 73, (6-(3-cyclopropyl-1H-1,2,4-triazol-1-yl)-2-azaspiro[3.3]heptan-2-yl)(3-((2-fluoro-5-(trifluoromethyl)benzyl)oxy)azetidin-1-yl)methanone]
160 nM	O=C(N1CC(OCc2ccc(C(F)(F)F)c(F)c2)C1)N1CC2(CC(n3cnc(C4CC4)n3)C2)C1 [Example 74, (6-(3-cyclopropyl-1H-1,2,4-triazol-1-yl)-2-azaspiro[3.3]heptan-2-yl)(3-((3-fluoro-4-(trifluoromethyl)benzyl)oxy)azetidin-1-yl)methanone]
